# Results published in ChEMBL document CHEMBL4376892, “Identification of Parthenolide Dimers as Activators of Pyruvate Kinase M2 in Xenografts of Glioblastoma Multiforme in Vivo” (J Med Chem, 2020).
# Counter-ions that a name gives are not always drawn. The source made the active and inactive calls. No cut-off for these calls is given here.
# Assays:
# [1] = system: NIH3T3; test: Cytotoxicity against mouse 3T3 cells assessed as reduction in cell viability after 72 hrs by MTT assay; type: cell-based; settings: NIH3T3, 72 h
# [2] = system: SF-126; test: Antiproliferative activity against human SF126 cells assessed as reduction in cell viability after 72 hrs by MTT assay; type: functional, cell-based; settings: SF-126, 72 h
# [3] = system: C6; test: Antiproliferative activity against rat C6 cells assessed as reduction in cell viability after 72 hrs by MTT assay; type: functional, cell-based; settings: C6, 72 h
# [4] = Antiproliferative activity against human SHG44 cells assessed as reduction in cell viability after 72 hrs by MTT assay; type: functional, cell-based; settings: SHG-44, 72 h
# [5] = system: U-87 MG; test: Antiproliferative activity against human U87 cells assessed as reduction in cell viability after 72 hrs by MTT assay; type: functional, cell-based, U-87MG ATCC
# [6] = system: U-251; test: Antiproliferative activity against human U251 cells assessed as reduction in cell viability after 72 hrs by MTT assay; type: functional, cell-based; settings: U-251, 72 h
# [7] = system: U-118-MG; test: Antiproliferative activity against human U118MG cells assessed as reduction in cell viability after 72 hrs by MTT assay; type: functional, cell-based
# [8] = biological target: Pyruvate kinase PKM (Homo sapiens, UniProt P14618); test: Activation of recombinant human N-terminal 6His-tagged PKM2 expressed in Escherichia coli BL21 cells at 10 uM after 30 mins by fluorescence based analysis relative to control
# [9] = system: Mus musculus; test: Increase in Bax protein expression in tumor of Bar b/c nude mouse xenografted with human U118MG cells at 50 mg/kg, ip adminstered every 3 days for 3 weeks and measured after 20 days by Western blot analysis; type: functional, organism-based
# [10] = system: Mus musculus; test: Reduction in STAT3 protein expression in tumor of Bar b/c nude mouse xenografted with human U118MG cells at 50 mg/kg, ip adminstered every 3 days for 3 weeks and measured after 20 days by Western blot analysis; type: functional, organism-based
# [11] = system: Mus musculus; test: Increase in E-cadherin protein expression in tumor of Bar b/c nude mouse xenografted with human U118MG cells at 50 mg/kg, ip adminstered every 3 days for 3 weeks and measured after 20 days by Western blot analysis; type: functional, organism-based
# [12] = system: Mus musculus; test: Reduction in phosphorylated STAT3 expression in tumor of Bar b/c nude mouse xenografted with human U118MG cells at 50 mg/kg, ip adminstered twice weekly for 3 weeks and measured after 20 days by immunohistochemical analysis; type: functional, organism-based
# [13] = system: Mus musculus; test: Reduction in vimentin protein expression in tumor of Bar b/c nude mouse xenografted with human U118MG cells at 50 mg/kg, ip adminstered twice weekly for 3 weeks and measured after 20 days by immunohistochemical analysis; type: functional, organism-based
# [14] = system: Mus musculus; test: Reduction in vimentin protein expression in tumor of siPKM2-treated Bar b/c nude mouse xenografted with human U118MG cells at 50 mg/kg, ip adminstered twice weekly for 3 weeks and measured after 20 days by immunohistochemical analysis; type: functional, organism-based
# [15] = Toxicity in Bar b/c nude mouse xenografted with human U118MG cells assessed as effect on body weight at 50 mg/kg, ip adminstered twice weekly for 3 weeks and measured every 3 days for 20 days; type: organism-based; settings: in vivo, 480 h
# [16] = system: Mus musculus; test: Reduction in Bcl2 gene expression in tumor of Bar b/c nude mouse xenografted with human U118MG cells at 50 mg/kg, ip adminstered every 3 days for 3 weeks; type: functional, organism-based
# [17] = system: Mus musculus; test: Increase in E-cadherin protein expression in tumor of Bar b/c nude mouse xenografted with human U118MG cells at 50 mg/kg, ip adminstered twice weekly for 3 weeks and measured after 20 days by immunohistochemical analysis; type: functional, organism-based
# [18] = system: Mus musculus; test: Reduction in Bcl2 protein expression in tumor of siPKM2-treated Bar b/c nude mouse xenografted with human U118MG cells at 50 mg/kg, ip adminstered twice weekly for 3 weeks and measured after 20 days by immunohistochemical analysis; type: functional, organism-based
# [19] = system: Mus musculus; test: Reduction in phosphorylated STAT3 expression in tumor of siPKM2-treated Bar b/c nude mouse xenografted with human U118MG cells at 50 mg/kg, ip adminstered twice weekly for 3 weeks and measured after 20 days by immunohistochemical analysis; type: functional, organism-based
# [20] = system: Mus musculus; test: Reduction in Bcl2 protein expression in tumor of Bar b/c nude mouse xenografted with human U118MG cells at 50 mg/kg, ip adminstered twice weekly for 3 weeks and measured after 20 days by immunohistochemical analysis; type: functional, organism-based
# [21] = system: Mus musculus; test: Reduction in Bcl2 protein expression in tumor of Bar b/c nude mouse xenografted with human U118MG cells at 50 mg/kg, ip adminstered every 3 days for 3 weeks and measured after 20 days by Western blot analysis; type: functional, organism-based
# [22] = system: Mus musculus; test: Increase in bax protein expression in tumor of siPKM2-treated Bar b/c nude mouse xenografted with human U118MG cells at 50 mg/kg, ip adminstered twice weekly for 3 weeks and measured after 20 days by immunohistochemical analysis; type: functional, organism-based
# [23] = system: U-118-MG; test: Antitumor activity against human U118MG cells xenografted in Bar b/c nude mouse assessed as reduction in tumor growth at 50 mg/kg, ip adminstered twice weekly for 3 weeks and measured every 3 days for 20 days by caliper method; type: functional, organism-based
# [24] = system: U-118-MG; test: Antitumor activity against human U118MG cells xenografted in siPKM2-treated Bar b/c nude mouse assessed as tumor growth at 50 mg/kg, ip adminstered twice weekly for 3 weeks measured every 3 days for 20 days by caliper method; type: functional, organism-based
# [25] = system: Mus musculus; test: Increase in E-cadherin gene expression in tumor of Bar b/c nude mouse xenografted with human U118MG cells at 50 mg/kg, ip adminstered every 3 days for 3 weeks; type: functional, organism-based
# [26] = system: Mus musculus; test: Reduction in vimentin protein expression in tumor of Bar b/c nude mouse xenografted with human U118MG cells at 50 mg/kg, ip adminstered every 3 days for 3 weeks and measured after 20 days by Western blot analysis; type: functional, organism-based
# [27] = system: U-118-MG; test: Antitumor activity against human U118MG cells xenografted in Bar b/c nude mouse assessed as reduction in tumor weight at 50 mg/kg, ip adminstered twice weekly for 3 weeks and measured every 3 days for 20 days by caliper method; type: functional, organism-based
# [28] = system: Mus musculus; test: Reduction in STAT3 gene expression in tumor of Bar b/c nude mouse xenografted with human U118MG cells at 50 mg/kg, ip adminstered every 3 days for 3 weeks; type: functional, organism-based
# [29] = system: Mus musculus; test: Increase in bax protein expression in tumor of Bar b/c nude mouse xenografted with human U118MG cells at 50 mg/kg, ip adminstered twice weekly for 3 weeks and measured after 20 days by immunohistochemical analysis; type: functional, organism-based
# [30] = system: Mus musculus; test: Increase in E-cadherin protein expression in tumor of siPKM2-treated Bar b/c nude mouse xenografted with human U118MG cells at 50 mg/kg, ip adminstered twice weekly for 3 weeks and measured after 20 days by immunohistochemical analysis; type: functional, organism-based
# Chain of Pyruvate kinase PKM (P14618 2-531 limits assumed): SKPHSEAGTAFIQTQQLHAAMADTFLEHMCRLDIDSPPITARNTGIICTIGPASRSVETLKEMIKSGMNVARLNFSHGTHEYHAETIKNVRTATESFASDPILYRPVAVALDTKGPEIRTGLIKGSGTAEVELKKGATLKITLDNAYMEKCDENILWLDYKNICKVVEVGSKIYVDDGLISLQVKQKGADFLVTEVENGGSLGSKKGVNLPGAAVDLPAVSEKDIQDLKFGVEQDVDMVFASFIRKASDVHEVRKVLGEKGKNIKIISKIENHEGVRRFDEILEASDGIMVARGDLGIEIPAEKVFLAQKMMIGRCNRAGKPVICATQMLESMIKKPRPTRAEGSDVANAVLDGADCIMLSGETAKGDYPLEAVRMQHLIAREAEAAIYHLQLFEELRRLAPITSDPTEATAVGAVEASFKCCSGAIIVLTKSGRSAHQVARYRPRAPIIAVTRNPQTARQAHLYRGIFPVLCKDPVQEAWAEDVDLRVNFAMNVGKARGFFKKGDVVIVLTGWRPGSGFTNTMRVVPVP
smiles,measurement,setting,value
C=C1C(=O)O[C@@H]2C3O[C@]3(C)CC/C=C(\C)CC[C@@H]12 (some centres not stated),IC50,[1],7.14 µM
same,IC50,[2],17.1 µM
same,IC50,[3],5.45 µM
same,IC50,[4],9.52 µM
same,IC50,[5],4.38 µM
same,IC50,[6],12.6 µM
same,IC50,[7],5.94 µM
COc1cccc2c1C(=O)c1c(O)c3c(c(O)c1C2=O)C[C@@](O)(C(=O)CO)C[C@@H]3O[C@H]1C[C@H](N)[C@H](O)[C@H](C)O1 [DOXORUBICIN HYDROCHLORIDE],IC50,[1],0.34 µM
same,IC50,[2],0.26 µM
same,IC50,[3],0.06 µM
same,IC50,[4],1.84 µM
same,IC50,[5],0.15 µM
same,IC50,[6],48 µM
same,IC50,[7],0.09 µM
C=C1C(=O)O[C@H]2[C@H]1CC/C(C(=O)OCCOCCOCCOCCOCCOCCOCCOCCOCCOCCOCCOCCOCCOCCOCCOCCOCCOCCOC(=O)/C1=C/CC[C@@]3(C)O[C@H]3[C@H]3OC(=O)C(=C)[C@@H]3CC1)=C\CC[C@@]1(C)O[C@@H]21,IC50,[1],> 50 µM
same,fold change (FC),[8],> 2
same,IC50,[2],> 50 µM
same,IC50,[3],> 50 µM
same,IC50,[4],> 50 µM
same,IC50,[5],> 50 µM
same,IC50,[6],> 50 µM
same,IC50,[7],> 50 µM
C=C1C(=O)O[C@H]2[C@H]1CC/C(C(=O)OCCOCCOCCOCCOCCOCCOCCOCCOCCOCCOCCOCCOCCOCCOCCOCCOCCOCCOCCOCCOC(=O)/C1=C/CC[C@@]3(C)O[C@H]3[C@H]3OC(=O)C(=C)[C@@H]3CC1)=C\CC[C@@]1(C)O[C@@H]21,IC50,[1],> 50 µM
same,fold change (FC),[8],> 2
same,IC50,[2],> 50 µM
same,IC50,[3],> 50 µM
same,IC50,[4],> 50 µM
same,IC50,[5],> 50 µM
same,IC50,[6],> 50 µM
same,IC50,[7],> 50 µM
Cn1c2cc([S+](C)[O-])sc2c2cnn(Cc3cccc(N)c3)c(=O)c21 (configuration not stated),IC50,[1],56.6 µM
same,IC50,[2],89 µM
same,IC50,[3],81.8 µM
same,IC50,[4],49 µM
same,IC50,[5],86.3 µM
same,IC50,[6],65.4 µM
same,IC50,[7],85 µM
CN(C)C[C@@H]1C(=O)O[C@H]2[C@H]1CC/C(C(=O)OCCOCCOC(=O)/C1=C/CC[C@@]3(C)O[C@H]3[C@H]3OC(=O)[C@@H](CN(C)C)[C@@H]3CC1)=C\CC[C@@]1(C)O[C@@H]21.O=C(O)/C=C/C(=O)O.O=C(O)/C=C/C(=O)O,Activity,[9],Active
same,inhibition,[10],Active
same,Activity,[11],Active
same,inhibition,[12],Active
same,inhibition,[13],Active
same,inhibition,[14],inactive
same,Activity,[15],Non-Toxic
same,inhibition,[16],Active
same,Activity,[17],Active
same,inhibition,[18],inactive
same,inhibition,[19],inactive
same,inhibition,[20],Active
same,inhibition,[21],Active
same,Activity,[22],inactive
same,Activity,[23],Active
same,Activity,[24],inactive
same,Activity,[25],Active
same,inhibition,[26],Active
same,Activity,[27],Active
same,inhibition,[28],Active
same,Activity,[29],Active
same,Activity,[30],inactive
C=C1C(=O)O[C@H]2[C@H]1CC/C(C(=O)OCCOCCOCCOCCOCCOCCOCCOCCOCCOCCOCCOCCOC(=O)/C1=C/CC[C@@]3(C)O[C@H]3[C@H]3OC(=O)C(=C)[C@@H]3CC1)=C\CC[C@@]1(C)O[C@@H]21,IC50,[1],> 50 µM
same,fold change (FC),[8],> 2
same,IC50,[2],> 50 µM
same,IC50,[3],> 50 µM
same,IC50,[4],50.1 µM
same,IC50,[5],16.2 µM
same,IC50,[6],> 50 µM
same,IC50,[7],17.4 µM
